Assay results taken from the NIST ThermoML archive (doi:10.1016/j.jct.2011.10.027).
Numbers after ± are expanded uncertainties.

Assay: xn = mol fraction of the nth substance listed
Details: 101 kPa, Liquid, Vibrating tube method

Question: What does the source list for `CCCCN(CCCC)CCCC` [tributylamine] + Cc1ccccc1?
Answer: mass density (293.15 K, x1 = 0.0818): 851.2 ± 0.14 kg/m3; mass density (293.15 K, x1 = 0.1626): 838.57 ± 0.14 kg/m3; mass density (293.15 K, x1 = 0.2401): 828.4 ± 0.15 kg/m3; mass density (293.15 K, x1 = 0.3243): 819.07 ± 0.15 kg/m3; mass density (293.15 K, x1 = 0.3987): 811.93 ± 0.16 kg/m3; mass density (293.15 K, x1 = 0.4789): 805.28 ± 0.17 kg/m3; mass density (293.15 K, x1 = 0.5592): 799.41 ± 0.17 kg/m3; mass density (293.15 K, x1 = 0.6414): 794.14 ± 0.18 kg/m3; mass density (293.15 K, x1 = 0.7238): 789.42 ± 0.2 kg/m3; mass density (293.15 K, x1 = 0.7985): 785.62 ± 0.21 kg/m3; mass density (293.15 K, x1 = 0.8802): 781.79 ± 0.22 kg/m3; mass density (293.15 K, x1 = 0.8991): 780.96 ± 0.22 kg/m3; mass density (298.15 K, x1 = 0.0818): 846.71 ± 0.14 kg/m3; mass density (298.15 K, x1 = 0.1626): 834.2 ± 0.14 kg/m3; mass density (298.15 K, x1 = 0.2401): 824.14 ± 0.15 kg/m3; mass density (298.15 K, x1 = 0.3243): 814.89 ± 0.15 kg/m3; mass density (298.15 K, x1 = 0.3987): 807.83 ± 0.16 kg/m3; mass density (298.15 K, x1 = 0.4789): 801.25 ± 0.17 kg/m3; mass density (298.15 K, x1 = 0.5592): 795.44 ± 0.18 kg/m3; mass density (298.15 K, x1 = 0.6414): 790.22 ± 0.19 kg/m3; mass density (298.15 K, x1 = 0.7238): 785.56 ± 0.2 kg/m3; mass density (298.15 K, x1 = 0.7985): 781.8 ± 0.21 kg/m3; mass density (298.15 K, x1 = 0.8802): 778.01 ± 0.22 kg/m3; mass density (298.15 K, x1 = 0.8991): 777.2 ± 0.22 kg/m3; mass density (303.15 K, x1 = 0.0818): 842.2 ± 0.14 kg/m3; mass density (303.15 K, x1 = 0.1626): 829.81 ± 0.14 kg/m3; mass density (303.15 K, x1 = 0.2401): 819.86 ± 0.15 kg/m3; mass density (303.15 K, x1 = 0.3243): 810.71 ± 0.15 kg/m3; mass density (303.15 K, x1 = 0.3987): 803.72 ± 0.16 kg/m3; mass density (303.15 K, x1 = 0.4789): 797.2 ± 0.17 kg/m3; mass density (303.15 K, x1 = 0.5592): 791.46 ± 0.18 kg/m3; mass density (303.15 K, x1 = 0.6414): 786.3 ± 0.19 kg/m3; mass density (303.15 K, x1 = 0.7238): 781.69 ± 0.2 kg/m3; mass density (303.15 K, x1 = 0.7985): 777.97 ± 0.21 kg/m3; mass density (303.15 K, x1 = 0.8802): 774.23 ± 0.22 kg/m3; mass density (303.15 K, x1 = 0.8991): 773.42 ± 0.22 kg/m3; mass density (313.15 K, x1 = 0.0818): 833.14 ± 0.14 kg/m3; mass density (313.15 K, x1 = 0.1626): 821 ± 0.14 kg/m3; mass density (313.15 K, x1 = 0.2401): 811.26 ± 0.15 kg/m3; mass density (313.15 K, x1 = 0.3243): 802.29 ± 0.16 kg/m3; mass density (313.15 K, x1 = 0.3987): 795.46 ± 0.16 kg/m3; mass density (313.15 K, x1 = 0.4789): 789.08 ± 0.17 kg/m3; mass density (313.15 K, x1 = 0.5592): 783.47 ± 0.18 kg/m3; mass density (313.15 K, x1 = 0.6414): 778.42 ± 0.19 kg/m3; mass density (313.15 K, x1 = 0.7238): 773.92 ± 0.2 kg/m3; mass density (313.15 K, x1 = 0.7985): 770.28 ± 0.21 kg/m3; mass density (313.15 K, x1 = 0.8802): 766.64 ± 0.22 kg/m3; mass density (313.15 K, x1 = 0.8991): 765.85 ± 0.22 kg/m3; mass density (323.15 K, x1 = 0.0818): 824.01 ± 0.14 kg/m3; mass density (323.15 K, x1 = 0.1626): 812.13 ± 0.15 kg/m3; mass density (323.15 K, x1 = 0.2401): 802.6 ± 0.15 kg/m3; mass density (323.15 K, x1 = 0.3243): 793.83 ± 0.16 kg/m3; mass density (323.15 K, x1 = 0.3987): 787.15 ± 0.16 kg/m3; mass density (323.15 K, x1 = 0.4789): 780.92 ± 0.17 kg/m3; mass density (323.15 K, x1 = 0.5592): 775.43 ± 0.18 kg/m3; mass density (323.15 K, x1 = 0.6414): 770.5 ± 0.19 kg/m3; mass density (323.15 K, x1 = 0.7238): 766.11 ± 0.2 kg/m3; mass density (323.15 K, x1 = 0.7985): 762.56 ± 0.21 kg/m3; mass density (323.15 K, x1 = 0.8802): 759 ± 0.22 kg/m3; mass density (323.15 K, x1 = 0.8991): 758.23 ± 0.22 kg/m3; mass density (333.15 K, x1 = 0.0818): 814.79 ± 0.14 kg/m3; mass density (333.15 K, x1 = 0.1626): 803.18 ± 0.15 kg/m3; mass density (333.15 K, x1 = 0.2401): 793.86 ± 0.15 kg/m3; mass density (333.15 K, x1 = 0.3243): 785.3 ± 0.16 kg/m3; mass density (333.15 K, x1 = 0.3987): 778.78 ± 0.17 kg/m3; mass density (333.15 K, x1 = 0.4789): 772.69 ± 0.17 kg/m3; mass density (333.15 K, x1 = 0.5592): 767.34 ± 0.18 kg/m3; mass density (333.15 K, x1 = 0.6414): 762.52 ± 0.19 kg/m3; mass density (333.15 K, x1 = 0.7238): 758.24 ± 0.2 kg/m3; mass density (333.15 K, x1 = 0.7985): 754.78 ± 0.21 kg/m3; mass density (333.15 K, x1 = 0.8802): 751.31 ± 0.22 kg/m3; mass density (333.15 K, x1 = 0.8991): 750.57 ± 0.23 kg/m3
